Results on 4 compounds are retold here after patent publication US20230257367A1, “NOVEL THYROID HORMONE BETA RECEPTOR AGONIST” (Chengdu Kanghong Pharmaceutical Co., Ltd., priority 2020, published 2023).

The target of one data set is T1, TRβ (Homo sapiens, UniProt P10828).
T1 construct: host or cells: HEK293T
T1 sequence (P10828 217-461 limits assumed): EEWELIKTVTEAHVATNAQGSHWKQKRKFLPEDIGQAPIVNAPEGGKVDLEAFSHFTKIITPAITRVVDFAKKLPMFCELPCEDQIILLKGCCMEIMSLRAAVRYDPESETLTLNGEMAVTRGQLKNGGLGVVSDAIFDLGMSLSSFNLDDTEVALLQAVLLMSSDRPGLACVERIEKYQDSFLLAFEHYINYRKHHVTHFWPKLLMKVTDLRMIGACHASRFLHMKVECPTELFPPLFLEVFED
T1 sequence (P19793 227-458 partner limits assumed): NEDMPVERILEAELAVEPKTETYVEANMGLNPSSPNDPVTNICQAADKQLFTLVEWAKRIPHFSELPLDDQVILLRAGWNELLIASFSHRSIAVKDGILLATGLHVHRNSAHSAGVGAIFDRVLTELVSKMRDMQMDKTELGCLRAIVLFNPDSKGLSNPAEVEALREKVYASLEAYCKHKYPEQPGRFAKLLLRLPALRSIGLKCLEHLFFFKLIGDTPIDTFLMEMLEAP
The experiment in a line: In vitro TRβ cell transfection experiment (GAL4 luciferase reporter, HEK293T). The format is cell-based. (Reporter assays use an easily measured gene product as a stand-in for the process of interest.)

Another data set deals with T2, TRα-LBD/RXRα (Homo sapiens, UniProt P10827).
T2 construct: TRα-LBD (Invitrogen, PV4762), or TRβ-LBD (Invitrogen, PV4764) with a GST tag were used; purchased Invitrogen (TRα-LBD); Pharmaron (RXRα) PV4762
As to the kind of experiment: In vitro binding experiment (TR-FRET SRC2-2 co-activator peptide recruitment), TRα. The conditions noted are these: 4 h incubation at room temperature. The format is biochemical.

In another data set the target is T3, TRα (Homo sapiens, UniProt P10827).
T3 construct: host or cells: HEK293T
T3 sequence (P10827 1-410 isoform P10827-2): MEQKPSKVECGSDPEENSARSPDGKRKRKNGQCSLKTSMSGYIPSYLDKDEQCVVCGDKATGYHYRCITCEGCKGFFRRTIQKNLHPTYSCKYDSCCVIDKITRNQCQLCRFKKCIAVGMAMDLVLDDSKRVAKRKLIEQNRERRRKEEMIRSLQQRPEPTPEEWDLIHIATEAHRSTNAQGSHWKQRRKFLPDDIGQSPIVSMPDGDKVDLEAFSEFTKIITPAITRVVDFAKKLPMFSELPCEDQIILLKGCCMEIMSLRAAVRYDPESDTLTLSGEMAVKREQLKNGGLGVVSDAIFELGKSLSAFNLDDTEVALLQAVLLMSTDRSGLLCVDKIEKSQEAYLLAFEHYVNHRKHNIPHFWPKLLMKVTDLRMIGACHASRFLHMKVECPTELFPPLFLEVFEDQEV
T3 sequence (P19793 227-458 partner limits assumed): T1 sequence (P19793 227-458 partner limits assumed)
As to the kind of experiment: In vitro TRα cell transfection experiment (GAL4 luciferase reporter, HEK293T). The format is cell-based.

The next data set deals with primary hepatocyte. The experiment in a line: Hepatotoxicity detection in vitro (CellTiter-Glo). Conditions: primary hepatocytes; for IC50: Homo sapiens, Hepatocyte, cell viability after 48 hours; for Cell activity at the highest concentration (%): 48 hours, highest working solution concentration 600 μM. The format is cell-based, human. Here is the method: Information of Primary Hepatocyte
Step 1: a test substance was prepared into a 200 mM DMSO stock solution, and then subjected to 3-times gradient continuous dilution by 7 concentrations, then 1.5 μL of each of the solutions of the 8 concentrations was added into 498.5 μL of incubation culture medium (with a composition referring to Table 5, directly mixed evenly) to prepare a working solution, and the incubation culture medium was preheated at 37° C. before preparation. DMSO was used as a solvent control. DMSO contents in the working solution and the solvent control were both 0.3 vol %. Concentrations of compounds were as follows:
Step 2: Plate Inoculation and Cell Culture
Second Step: Plate Inoculation and Culture of Cells
1) A tube of hepatocytes of the donor used in the experiment preserved at ultra-low temperature was taken, and the hepatocytes were ensured to be still frozen at low temperature before resuscitation. The hepatocytes were quickly placed in a water bath at 37° C. and gently shaken until all ice crystals were dispersed, and were transferred to a biosafety cabinet after spraying 70 vol % ethanol.
2) Contents of hepatocyte tubules were poured into a 50 mL centrifuge tube containing 50 mL of resuscitation culture medium (with a composition referring to Table 3, directly mixed evenly), and centrifuged at 80 g for 8 minutes. After centrifugation, the resuscitation culture medium was sucked out and an inoculation culture medium was added (with a composition referring to Table 4, directly mixed evenly). The cells were counted by AO/PI staining to obtain a cell suspension with a cell density of 0.2×10^6 cells per milliliter.
3) The cell suspension above was inoculated into a 96-well plate coated with collagen I, with 100 μL per well. The culture plate was placed in a 5% CO2 incubator with 95% relative humidity to culture for 4 hours to 6 hours.
4) After incubation for 4 hours to 6 hours, the state of the cells was observed under microscope. The culture plate was shaken gently, the inoculation culture medium was sucked out, and 100 μL of incubation culture medium was added into each well (with a composition referring to Table 5). A toxicity test could be carried out after culturing in the incubator for 18 hours to 20 hours.
5) Before administration, the morphology of the cells was observed under microscope. The culture medium in the culture plate was sucked out, and 100 μL of solvent control (DMSO), or test substance working solution was added into each well. Three parallel samples were tested under each condition.
6) The newly prepared working solution or solvent control was used for solution exchange every 24 hours after dosing.
After the working solution acted for 48 hours, the morphology of the cells was observed under microscope for later use.
Step 3: Cytotoxicity Detection
1) A CellTiter-Glo (Promega, article number G9243) reagent stored at −20° C. was melted in a water bath at 37° C.
2) After the cell culture plate obtained above was incubated for 48 hours, 50 μL of CellTiter-Glo solution was directly added into each experimental well.
3) The cell culture plate was vortexed at 400 rpm for 10 minutes, and incubated at room temperature to stabilize a luminescence signal.
After 10 minutes 100 μL of reaction solution was sucked from each well and transferred to a new white nontransparent-bottom flat plate (Corning 96-well plate Cat No. 3917). The
chemiluminescence value of each well was read by a microplate reader (a luminescence value of the white nontransparent-bottom flat plate was recorded as “a luminescence valueblank”; and a luminescence value of the solvent control was recorded as “a luminescence valuesolvent”).
Cell viability(%)=[(luminescence valueto-be-tested compound−luminescence valueblank)/(luminescence valuesolvent−luminescence valueblank)]×100% […]
A general note: Cellular ATP, detected with luciferase, serves as a proxy for viable cell number.

The next data set addresses T4, TRβ-LBD/RXRα (Homo sapiens, UniProt P10828).
T4 construct: TRβ-LBD (Invitrogen, PV4764) with a GST tag were used; purchased Invitrogen (TRβ-LBD); Pharmaron (RXRα) PV4764
As to the kind of experiment: In vitro binding experiment (TR-FRET SRC2-2 co-activator peptide recruitment), TRβ. The format is biochemical. The conditions noted are these: 4 h incubation at room temperature. A general note: Time-resolved FRET reads energy transfer from a long-lived donor to a nearby acceptor.

For data set [1] the following is noted: preclinical toxicological studies; cited from earlier work.
The conditions of data set [2]: reported clinical data (VK2809 phase I; Eprotirome phase III); cited from earlier work.

T2 sequence (P19793 whole entry partner, other chains not shown, the tested form may be a part): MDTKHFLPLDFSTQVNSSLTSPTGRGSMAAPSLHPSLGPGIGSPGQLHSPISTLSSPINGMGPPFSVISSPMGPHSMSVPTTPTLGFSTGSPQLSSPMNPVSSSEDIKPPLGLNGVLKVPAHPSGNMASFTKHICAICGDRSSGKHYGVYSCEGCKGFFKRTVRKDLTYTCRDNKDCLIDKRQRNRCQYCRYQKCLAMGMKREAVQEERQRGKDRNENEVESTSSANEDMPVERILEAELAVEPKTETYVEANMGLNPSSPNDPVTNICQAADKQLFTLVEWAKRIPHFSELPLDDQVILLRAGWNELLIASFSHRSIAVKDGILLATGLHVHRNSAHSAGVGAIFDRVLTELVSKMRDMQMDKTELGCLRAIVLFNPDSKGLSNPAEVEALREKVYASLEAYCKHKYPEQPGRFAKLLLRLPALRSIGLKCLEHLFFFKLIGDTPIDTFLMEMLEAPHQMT
T4 sequence (P19793 whole entry partner, other chains not shown, the tested form may be a part): as above

As for `O=c1cnn(-c2cc(Cl)c(Oc3ncc(O)c(Cc4ccccc4)n3)c(Cl)c2)c(=O)[nH]1` [KH10], the EC50 at TRβ was 0.032 µM; at TRα-LBD/RXRα it was 1.47 µM; on TRα, 0.269 µM; at TRβ-LBD/RXRα, 0.054 µM. In the data set with primary hepatocyte, this compound returned an IC50 of 160000 nM. Also, the “Cell activity at the highest concentration (%)” value with primary hepatocyte worked out at 0.0142%.
In the case of `Cc1cc(OCP2(=O)OCC[C@@H](c3cccc(Cl)c3)O2)cc(C)c1Cc1ccc(O)c(C(C)C)c1` (stereo partly shown) [VK2809], in data set [1], the cartilage damage result is reported as “cartilage damage was found”. For the same compound, the liver enzyme result in data set [2] is “Liver enzyme increase”.
For the compound `CC(C)c1nc(Oc2c(Cl)cc(-n3nc(C#N)c(=O)[nH]c3=O)cc2Cl)ncc1O` [KH03], the EC50 at TRβ is 0.089 µM; on TRα-LBD/RXRα, 0.144 µM; at TRα it was 0.826 µM; on TRβ-LBD/RXRα, 0.031 µM. The compound further yielded an IC50 with primary hepatocyte of 264000 nM. For the same compound, in the data set on primary hepatocyte, the “Cell activity at the highest concentration (%)” value turned out to be 0.0421%.
As for `CC(C)c1cc(Oc2c(Br)cc(NC(=O)CC(=O)O)cc2Br)ccc1O` [Eprotirome], the cartilage damage entry in data set [1] is on record as “cartilage injury was also found”. For the same compound, in data set [2], the liver enzyme entry is given as “increase in liver enzyme”.

Usually EC50 stands for the midpoint of the concentration-response curve. By IC50 is commonly meant the concentration at which inhibition is half-maximal.
